Literature values, collected in US9999602B2, “Liquid menthol compositions” (DDROPS COMPANY, priority 2013, dated 2018).

Conditions: FDA review, Federal Register 1987

In the case of `CC(C)[C@@H]1CC[C@@H](C)C[C@H]1O` [menthol, (1R, 2S, 5R)-5-menthol-2-(1-methylethyl)-cyclohexanol], the “Dose of menthol required for antitussive (cough-suppressant) effect” value is listed as “at least 5 mg”.
